According to the NIST ThermoML archive (doi:10.1016/j.jct.2013.09.039):
± gives the expanded uncertainty stated by the source.

Experiment: xn = mol fraction of the nth substance listed
Details: Liquid, Vibrating tube method

Cc1ccc(C)cc1 [1,4-dimethylbenzene] + CCCCCCCC
mass density [kg/m3]
Details	100 kPa	5000 kPa	10000 kPa	20000 kPa	30000 kPa	40000 kPa
288.15 K, x2 = 0.0509	854.9 ± 2	858.3 ± 2	861.8 ± 2	868.3 ± 2	874.2 ± 2	880 ± 2
288.15 K, x2 = 0.0993	845.1 ± 2	849 ± 2	852.5 ± 2	858.8 ± 2	864.8 ± 2	870.6 ± 2
288.15 K, x2 = 0.1981	826.4 ± 2	830.2 ± 2	833.7 ± 2	840.4 ± 2	846.4 ± 2	852.2 ± 2
288.15 K, x2 = 0.2961	808.8 ± 2	812.6 ± 2	816.2 ± 2	822.9 ± 2	829 ± 2	834.9 ± 2.1
288.15 K, x2 = 0.3989	791.4 ± 2	795.2 ± 2	798.9 ± 2	805.6 ± 2	811.9 ± 2	817.8 ± 2.1
288.15 K, x2 = 0.4891	776.6 ± 2	780.8 ± 2	784.6 ± 2	791.3 ± 2	797.8 ± 2	803.8 ± 2.1
288.15 K, x2 = 0.5473	768.3 ± 2	772 ± 2	775.7 ± 2	782.7 ± 2	789.1 ± 2.1	795.1 ± 2.1
288.15 K, x2 = 0.6039	760.1 ± 2	763.5 ± 2	767.2 ± 2	774.2 ± 2	780.5 ± 2.1	786.5 ± 2.1
288.15 K, x2 = 0.8031	731.5 ± 2	735.9 ± 2	739.8 ± 2	746.9 ± 2	753.3 ± 2.1	759.8 ± 2.1
288.15 K, x2 = 0.8963	719.7 ± 2	723.8 ± 2	727.5 ± 2	734.8 ± 2	741.1 ± 2.1	747.2 ± 2.1
288.15 K, x2 = 0.946	712.7 ± 2	716.7 ± 2	720.8 ± 2	727.6 ± 2	734.2 ± 2.1	740.3 ± 2.1
298.15 K, x2 = 0.0509	846.1 ± 2	850.4 ± 2	853.4 ± 2	–	–	–
298.15 K, x2 = 0.0993	836.5 ± 2	840.8 ± 2	844 ± 2	–	–	–
298.15 K, x2 = 0.1981	817.9 ± 2	822.3 ± 2	825.5 ± 2	–	–	–
298.15 K, x2 = 0.2961	800.2 ± 2	804.6 ± 2	808 ± 2	–	–	–
298.15 K, x2 = 0.3989	782.9 ± 2	787.4 ± 2	790.9 ± 2	–	–	–
298.15 K, x2 = 0.4891	768.7 ± 2	773.3 ± 2	776.6 ± 2	–	–	–
298.15 K, x2 = 0.5473	760.7 ± 2	764.4 ± 2	768 ± 2	–	–	–
298.15 K, x2 = 0.6039	752.1 ± 2	755.9 ± 2	759.5 ± 2	–	–	–
298.15 K, x2 = 0.8031	723.7 ± 2	728.5 ± 2	732.1 ± 2	–	–	–
298.15 K, x2 = 0.8963	712.2 ± 2	716.5 ± 2	720 ± 2	–	–	–
298.15 K, x2 = 0.946	704.7 ± 2	709.5 ± 2	713.2 ± 2	–	–	–
